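These data come from cells grown in 96-well plates and exposed to compound for 48 hours at five concentrations. GI50 is the concentration that inhibits growth by half.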 Calls of active or inactive are those of the source. Rule as the data show it: active = GI50 up to about 1.1 µM and inactive = higher.
Key:
Assay in all cases: NCI anticancer screen, dose series, 48 h
CCRF-CEM = tested on: CCRF-CEM
K562 = tested on: K562
KM12 = tested on: KM12
HCC 2998 = tested on: HCC 2998
NCI-H23 = tested on: NCI-H23
SF-295 = tested on: SF-295
IGROV-1 = tested on: IGROV-1
M14 = tested on: M14
OVCAR-4 = tested on: OVCAR-4
COLO 205 = tested on: COLO 205
HOP-62 = tested on: HOP-62
SK-MEL-2 = tested on: SK-MEL-2
RPMI-8226 = tested on: RPMI-8226
M19-MEL = tested on: M19-MEL
SK-MEL-5 = tested on: SK-MEL-5
T47D = tested on: T47D
MDA-MB-231 = tested on: MDA-MB-231
BT-549 = tested on: BT-549
MDA-N = tested on: MDA-N

Row | Compound | GI50 (CCRF-CEM) | GI50 (K562) | GI50 (KM12) | GI50 (HCC 2998) | GI50 (NCI-H23) | GI50 (SF-295) | GI50 (IGROV-1) | GI50 (M14) | GI50 (OVCAR-4) | GI50 (COLO 205) | GI50 (HOP-62) | GI50 (SK-MEL-2) | GI50 (RPMI-8226) | GI50 (M19-MEL) | GI50 (SK-MEL-5) | GI50 (T47D) | GI50 (MDA-MB-231) | GI50 (BT-549) | GI50 (MDA-N)
1 | CC1(c2ccc(F)cc2)C(C#N)C(=O)NC(=O)C1C#N (stereo not drawn) | > 100 µM (inactive) | > 100 µM (inactive) | > 100 µM (inactive) | > 100 µM (inactive) | > 100 µM (inactive) | > 100 µM (inactive) | > 100 µM (inactive) | > 100 µM (inactive) | > 100 µM (inactive) | > 100 µM (inactive) | 75.2 µM (inactive) | > 100 µM (inactive) | > 100 µM (inactive) | > 100 µM (inactive) | > 100 µM (inactive) |  |  |  | 
2 | Cc1cccc(NC(=O)C(=O)C(C(=O)c2ccccc2F)C2OC(=O)c3ccccc32)c1Cl (stereo not drawn) | 23.3 µM (inactive) | 28.6 µM (inactive) | 25 µM (inactive) | 22.5 µM (inactive) | 24.2 µM (inactive) | 36.4 µM (inactive) | 56.8 µM (inactive) | 43.1 µM (inactive) | 43.9 µM (inactive) | 20 µM (inactive) | 37.4 µM (inactive) | 16.8 µM (inactive) | 26.9 µM (inactive) | 22.4 µM (inactive) | 64 µM (inactive) |  |  |  | 
3 | O=C1NCCCC12CCCNC2=O | > 100 µM (inactive) | > 100 µM (inactive) | > 100 µM (inactive) | > 100 µM (inactive) | > 100 µM (inactive) | > 100 µM (inactive) | > 100 µM (inactive) | > 100 µM (inactive) |  | > 100 µM (inactive) | > 100 µM (inactive) |  | > 100 µM (inactive) | > 100 µM (inactive) | > 100 µM (inactive) |  |  |  | 
4 | CC(=O)OCc1nnn2c1C(OC(C)=O)CC2 (stereo not drawn) |  | > 100 µM (inactive) | > 100 µM (inactive) | > 100 µM (inactive) | > 100 µM (inactive) | > 100 µM (inactive) | > 100 µM (inactive) | > 100 µM (inactive) | > 100 µM (inactive) | > 100 µM (inactive) |  | > 100 µM (inactive) | > 100 µM (inactive) | > 100 µM (inactive) | > 100 µM (inactive) |  |  |  | 
5 | O=C1NC(=S)NC(=O)C1=Cc1ccc(-c2ccccc2)cc1 | 36.3 µM (inactive) | 31.6 µM (inactive) | > 100 µM (inactive) | > 100 µM (inactive) | > 100 µM (inactive) | > 100 µM (inactive) | > 100 µM (inactive) | > 100 µM (inactive) | > 100 µM (inactive) | > 100 µM (inactive) | > 100 µM (inactive) | > 100 µM (inactive) | 66.2 µM (inactive) |  | > 100 µM (inactive) | > 100 µM (inactive) | 99.8 µM (inactive) | > 100 µM (inactive) | > 100 µM (inactive)
6 | CCOC(=O)c1cc(-c2ccc(OC)c(OC)c2)cn1C | > 10 µM (inactive) | > 10 µM (inactive) | > 10 µM (inactive) | > 10 µM (inactive) | > 10 µM (inactive) | > 10 µM (inactive) | > 10 µM (inactive) | > 10 µM (inactive) | > 10 µM (inactive) | > 10 µM (inactive) | > 10 µM (inactive) | > 10 µM (inactive) | > 10 µM (inactive) |  | > 10 µM (inactive) | > 10 µM (inactive) | > 10 µM (inactive) | > 10 µM (inactive) | > 10 µM (inactive)
7 | O=C(CC(O)c1cccnc1)CC(O)c1cccnc1 (stereo not drawn) | 3.02 µM (inactive) | 2.75 µM (inactive) | 11.1 µM (inactive) | 3.82 µM (inactive) | 22.5 µM (inactive) | 15.4 µM (inactive) | 14.8 µM (inactive) | 14.2 µM (inactive) | 20.7 µM (inactive) | 14.1 µM (inactive) | 21.9 µM (inactive) | 18.9 µM (inactive) | 3.29 µM (inactive) |  | 16.1 µM (inactive) | 26.5 µM (inactive) | 14.9 µM (inactive) | 11.7 µM (inactive) | 7.26 µM (inactive)
8 | CC(C)/C(Cl)=N\OC(=O)Nc1ccc(C#N)cc1 | 1.05 µM (active) | 2 µM (inactive) | 15.8 µM (inactive) | 16.4 µM (inactive) | 15.2 µM (inactive) | 19 µM (inactive) | 17.6 µM (inactive) | 3.01 µM (inactive) | 1.63 µM (inactive) | 1.79 µM (inactive) | 17.5 µM (inactive) | 11.8 µM (inactive) | 2.56 µM (inactive) |  | 5.11 µM (inactive) | 5.77 µM (inactive) | 14.6 µM (inactive) | 13.7 µM (inactive) | 6.01 µM (inactive)

Source: ChEMBL document CHEMBL1201862, “PubChem BioAssay data set” (2004)
